From patent US6423714B1, “Cyclohexene derivatives useful as antagonists of the motilin receptor” (Ortho McNeil-Pharmaceutical, Inc.., priority 2000, dated 2002)

Target: T1, motilin receptors located on the colon of mature rabbits (Oryctolagus cuniculus, UniProt G1T803)
T1 construct: The muscle tissues were homogenized in 10 volumes of buffer; from tissue; host or cells: rabbit colon smooth muscle, crude membrane homogenate
Assay: Competition with radiolabeled (I125) porcine motilin for motilin receptors in rabbit colon membranes
Type: binding
Conditions: @ 50 nM; I125 motilin (porcine) 25-40 pM; rabbit colon smooth muscle membranes; 30 min at 30° C.
Description: The compounds of the invention were tested for their ability to compete with radiolabeled motilin (porcine) for the motilin receptors located on the colon of mature rabbits. The colon from mature New Zealand rabbits was removed, dissected free from the mucosa and serosa layers, and diced into small pieces. The muscle tissues were homogenized in 10 volumes of buffer (50 mM Tris-Cl, 10 mM MgCl2, 0.1 mg/mL bactracin, and 0.25 mM Peflabloc, pH 7.5) in a Polytron (29,000 rpm, 4×15 seconds). The homogenate was centrifuged at 1000×g for 15 min. and the supernatant discarded. The pellet was washed twice before being suspended in homogenizing buffer. This crude homogenate was then passed first through a 19 gauge needle then a 23 gauge needle to further suspend the material and stored at −80° C. […] The pellet was counted in the gamma counter to determine the percentage of […] motilin and thereby the percent inhibition of the test compound.
% inhibition was determined for some compounds by standard techniques: […]

T1 sequence (G1T803 1-400): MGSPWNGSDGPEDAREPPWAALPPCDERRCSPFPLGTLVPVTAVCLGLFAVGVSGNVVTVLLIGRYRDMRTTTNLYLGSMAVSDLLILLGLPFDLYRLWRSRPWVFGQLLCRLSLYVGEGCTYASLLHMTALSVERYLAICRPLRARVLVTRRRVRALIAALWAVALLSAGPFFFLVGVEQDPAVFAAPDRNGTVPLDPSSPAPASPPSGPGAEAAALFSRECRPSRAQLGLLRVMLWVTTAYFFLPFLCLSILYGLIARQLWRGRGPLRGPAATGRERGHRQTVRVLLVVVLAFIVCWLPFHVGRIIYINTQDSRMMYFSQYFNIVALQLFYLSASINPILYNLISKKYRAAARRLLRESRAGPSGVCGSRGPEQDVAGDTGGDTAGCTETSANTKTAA

Row | Compound | % inhibition [%]
1 | 3-Benzyl-3-trichloroacetamido-1-N[(3-(2-morpholinoethoxy)phenyl)amino]methylcyclohexene [Example 7] | 59
2 | O=C(Nc1ccccc1)N(CC1=CC(Cc2ccccc2)(NC(=O)C(Cl)(Cl)Cl)CCC1)c1cccc(OCCN2CCOCC2)c1 (centres unmarked) [Example 6, 3-Benzyl-3-trichloroacetamido-1-(N-phenylaminocarbonyl)-N-[(3-(2-morpholinoethoxy)phenyl)amino]methylcyclohexene] | 62
